Experimental data taken from the METLIN SMRT retention time set (Domingo-Almenara et al. 2019).

Test: gradient 5% acetonitrile 3 min, to 50% in 2 min, to 85% in 15 min, held 3 min, 100 µL/min
Settings: column: Zorbax Extend-C18 2.1 x 50 mm; eluents: water / acetonitrile, 0.1% formic acid
Outline: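 Over 3 months, pure standards in mixtures of ~100 molecules were run by HPLC coupled to a quadrupole time-of-flight mass spectrometer in positive and negative ionization mode. The column was a Zorbax Extend-C18 (2.1 × 50 mm, 1.8 μm) at 100 μL/min, eluted with water and acetonitrile each holding 0.1% formic acid, with 40 μL dead and 900 μL dwell volumes. Retention time was determined from adduct peaks chosen by software and checked manually.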

SMILES	RP-LC retention time [s]
CCc1ccccc1S(=O)(=O)N1CCC(C(=O)NCc2csc(-c3cccs3)n2)CC1	950
O=C([C@@H]1C[C@H](F)CN1C(=O)Nc1cccc(C(F)(F)F)c1)N1CCOCC1	698
O=C(CN1C(=O)NC2(CCCCC2)C1=O)Nc1ccccc1	722
O=C(Nc1cnc(N2CCOCC2)c(C(=O)O)c1)c1ccc(Br)cc1	715
COc1ccccc1CNC(=O)C1(c2ccc(NC(C)=O)cc2)CCC1	736
Cc1ccc(-n2ncc3c(N4CCN(C)CC4)ncnc32)cc1C	648
Cc1cccnc1NC(=O)c1csnn1	637
COc1ccc(CN2C=C(C(=O)OCc3ccccc3Cl)C(C)=NS2(=O)=O)cc1	1170
CSc1cccc(NC(=O)c2nnn(-c3ccccc3)c2C)c1	1060
CCC(=O)N(CCCOC)CC(=O)N1CCc2sccc2C1COc1ccccc1F (centres undefined)	912
COc1ccc(OC)c(NC(=O)N2CCN(c3cc(C)nc(N4CCCC4)n3)CC2)c1	676
Cc1nc(N2CCCC(C(=O)NCCc3ccc(S(N)(=O)=O)cc3)C2)c2c(C)c(C)oc2n1 (centres undefined)	680
CC1=C(c2ccc(C)cc2)S(=O)(=O)N=C1N1CCCN(C(=O)c2ccc(C)cc2)CC1	885
COc1cc(NC(=O)CCSc2ccccc2)c2ncccc2c1	1060
CCOc1ccc(S(=O)(=O)N2CCC(C(=O)NC3CCCC3)CC2)cc1	632
CC(C)Cn1nc2n(c1=O)CCN(S(=O)(=O)c1cc(F)ccc1F)CC2	802
Cc1cccc(NC(=O)C2CCCN(S(=O)(=O)c3c[nH]c(C(=O)N4CCCCCC4)c3)C2)c1 (centres undefined)	922
CCC1CCCCN1CCCNC(=O)CCc1cc2ccccc2[nH]c1=O (centres undefined)	598
O=S(=O)(c1cccc2cccnc12)N1CCc2ccccc2C1	876
Fc1ccc(C2Cn3nnc(-c4nc(-c5cccc(F)c5)no4)c3CO2)cc1 (centres undefined)	1150

SMILES	RP-LC retention time [s]
CN(CC1(C)CCOCC1)C(=O)NCc1cccc(F)c1	731
CCn1cc(-c2nc(CC(=O)NCc3ccc(C)cc3)cs2)c2cccnc21	912
CC(=O)/C=C1\SC(CC(=O)O)C(=O)N1c1ccccc1 (centres undefined)	631
Cc1nnc2ccc(N3CCOCC3)nn12	600
CCN1C(=O)c2cccnc2Sc2cc(NC(=O)COc3cccc(C)c3)ccc21	931
Cn1cc(-c2ccncc2)cc1C(=O)NCc1ccc(Cl)cc1	646
CC(C)(CO)NS(=O)(=O)c1cc(-c2nnc(-c3ccccc3)o2)ccc1F	773
CSc1ccccc1CN1CCC(CNC(=O)C(=O)Nc2ccon2)CC1	558
O=C(NCC1CCCCC1)c1sc2ncccc2c1-n1cccc1	1190
CC(C)C[C@H]1C(=O)N2CCC[C@H]2[C@]2(O)O[C@](NC(=O)[C@@H]3C=C4c5cccc6[nH]c(Br)c(c56)CC4N(C)C3)(C(C)C)C(=O)N12 (some centres undefined)	830
CCn1ccc2sc(C)c(C(=O)N3CCN(c4ccc(F)cc4)CC3)c2c1=O	808
Cc1[nH]c(C)c(S(=O)(=O)N2CCC(C(=O)NC3CCCC3)CC2)c1C(=O)N1CCCC1	659
CCc1ccc(S(=O)(=O)N2C[C@@H](F)C[C@H]2C(=O)N2CCc3ccccc3C2)cc1	998
Cc1nc(S(=O)(=O)N2CCC(C(=O)NCc3ccc(Cl)cc3)CC2)cn1C	709
Cc1ccc(-c2nnc(Cc3nc(-c4cccc(Cl)c4)no3)o2)cc1F	1170
CCc1ccc(-c2cc(C(=O)N3CCN(C)CC3)[nH]n2)cc1	620
CCc1nnc(-c2cn(CC(=O)Nc3c(Cl)cc(OC)cc3OC)c3ccccc23)o1	909
COc1ccc(N2CCN(C(=O)c3cn(-c4cc(N5CCCCC5)ncn4)cn3)CC2)cc1	817
CCNc1cc(N2CCC(CCC(=O)NCc3ccc(Cl)cc3)CC2)ncn1	585

Further lines, results first:

RP-LC retention time [s]	SMILES
843	COCCCNC(=O)NC1CCN(c2nc3cccnc3n(Cc3ccccc3)c2=O)CC1
761	O=C(CN1CCN(Cc2ccc(F)cc2)C1=O)NCc1ccc(N2CCCC2)cc1
783	Cc1ccc(CN2C(=O)C3(CCOCC3)CC2c2nnnn2C(C)(C)C)cc1 (centres undefined)
667	CN(C)c1cccc(C(=O)NC2CCN(c3ccccc3)C2=O)c1 (centres undefined)
601	Cc1cc(C)cc(Nc2nc(C)cc3nn(CC(=O)N4CCOCC4)c(=O)n23)c1
1190	COc1cc(NS(=O)(=O)c2ccc(Nc3nc(-c4ccc(C)c(C)c4)cs3)cc2)nc(OC)n1
1220	O=C(COc1ccc(F)cc1)Nc1ccc(-c2nc(-c3ccc(F)cc3)no2)cc1
970	Cc1nc(-c2cn(C(C)C)c3ncccc23)sc1C(=O)NCc1cccs1
747	CCCc1noc(-c2ccnc(-n3cnc(C(=O)N4CCOCC4)c3)c2)n1
996	CS(=O)(=O)N1CCC(C(=O)Nc2ccccc2Br)Oc2ccccc21 (centres undefined)
643	COc1cccc(-c2nc(-c3ccc4c(c3)ncn4CCN3CCCC3)no2)c1OC
716	COc1ccc(Cl)cc1NS(=O)(=O)c1cc(-c2[nH]ncc2C(=O)N(C)C)oc1C
624	CN(C)CCn1c2c(c(SCC(=O)Nc3ccccc3Cl)nc1=O)CCC2
831	COc1cc(NC(C)=O)c(Cl)cc1C(=O)NCCc1c[nH]c2ccc(C)cc12
626	COc1ccc(NC(=O)NC2CCN(c3cc(N4CCCC4)cnn3)C2)c(C)c1 (centres undefined)
1030	CCNS(=O)(=O)c1cccnc1Nc1ccc(Cl)cc1
888	Cc1ccc(C(=O)N2CCC(COc3ccc(C(=O)NC(C)C)cc3)CC2)s1
712	O=C(c1ccn[nH]1)N1CC(F)(F)C[C@H]1c1nc(C2CC2)no1
701	O=C(Cc1ccc([N+](=O)[O-])cc1)NCc1nnnn1-c1ccc(F)cc1
1140	CCc1ccc(S(=O)(=O)c2cnc(N3CCN(c4ccccc4)CC3)nc2N)cc1
606	Cc1ccc2c(c1)C(O)(CC(=O)c1cccc(N)c1)C(=O)N2 (centres undefined)
816	CCC(C)NC(=O)N1CCCN(C2=NS(=O)(=O)C(c3ccc(C)cc3)=C2C)CC1 (centres undefined)
695	Cn1cnc(S(=O)(=O)N2CCC(C(=O)NCc3ccccc3Cl)CC2)c1
717	O=C(c1cc(Cc2n[nH]c(=O)c3ccccc23)ccc1F)N1CCN(C(=O)C2CC2)CC1
745	CC(C)CCNC(=O)CN1C(=O)C2CCCCN2c2ccc(C(=O)N(C)C)cc21 (centres undefined)

RP-LC retention time [s]	SMILES
718	CCCCc1ccc(NC(=O)CSc2ccc(-c3ccncc3)nn2)cc1
610	Cc1[nH]c(C(=O)N2CCCC(C(=O)NCc3ccc(Cl)cc3)C2)c(C)c1C(=O)OC(C)C (centres undefined)
648	O=C(O)c1cccc(Nc2c(-c3ccc(N4CCOCC4)cc3)nc3cnccn23)c1
823	CCN(C)C(=O)C1CN(C(=O)c2cccs2)CC1c1cccc(C(F)(F)F)c1 (centres undefined)
873	O=S(=O)(Nc1ccc(F)cc1F)c1ccc2c(c1)-c1oncc1CO2
615	COc1ccc(NS(=O)(=O)c2cc3n(c2)CCCNC3=O)cc1
752	CCc1nnc([C@@H]2CC(F)(F)CN2C(=O)c2noc(C)c2COC)o1
647	CCNC(=O)C1CCCN(c2nc3ncn(CC(=O)Nc4ccccc4F)c(=O)c3s2)C1 (centres undefined)
889	Cc1cc(C(=O)Nc2cccc(F)c2)nc2ccnn12
929	CCOC(=O)c1nc(Nc2cc(Cl)ccc2C)c2ccccc2n1
852	Cc1ccc(NC(=O)COc2cc(C)nc(N3CCN(c4ccccc4)CC3)n2)cc1
720	N#Cc1cccc(N2C=C(C(=O)N3CCCC3)S(=O)(=O)c3ccccc32)c1
1090	CC(C)Cn1c(=O)c(C(=O)NC2CCCCCC2)nc2cccnc21
783	O=C(NCCc1c[nH]c2ccccc12)C(=O)NCc1cccs1
643	O=C1NC(C(=O)Nc2ccc3c(c2)OCCO3)Cn2cccc21 (centres undefined)
653	COc1cccc(S(=O)(=O)N2CCC3(CC2)N(C)C(=O)CS3=O)c1 (centres undefined)
1010	CN(C)c1ccc(/C=C2\C(=O)Nc3ccccc32)cc1
946	Cn1nc(C(C)(C)C)cc1C(=O)N[C@@H](Cc1cccc(Cl)c1)C(=O)NCC#N
714	CCCC(=O)NC1CCN(c2ccc(C)cc2)C1=O (centres undefined)
892	COc1ccc(Nc2nccc(C3CCCN(C(=O)C(C)(C)C)C3)n2)cc1 (centres undefined)
1000	CC1CCN(S(=O)(=O)c2cccc(-c3cn4cc(Cl)ccc4n3)c2)CC1
605	Cc1cccc2nnc(N3CCN(C(=O)c4cc5c(s4)CCCC5)CC3)n12
970	COc1cccc(Cn2ccn3nc(-c4ccc5c(c4)OCO5)cc3c2=O)c1
782	COc1ccc(-c2noc(-c3ccc(NCC4CCCO4)nn3)n2)cc1 (centres undefined)
951	COC(=O)C1C(=O)C2=C(CC1C)NC(C)=C(C(=O)OC(C)C)C2c1cccc(F)c1 (centres undefined)
